Source: patent US8999940B2 (Ipsen Pharma S.A.S., priority 2008, dated 2015)
Where a SMILES comes first, the peptide text is derived from it. Where no end group is shown, it is not given here. [ ]: non-standard residue; d: D form. The star is where a group is joined. Tyr(3-OMe) = COc1cc(C[C@H](N)C(=O)O)ccc1O; Phe(4-CN) = N#Cc1ccc(C[C@H](N)C(=O)O)cc1; Desaminotyrosyl = O=C(CCc1ccc(O)cc1)*; Nle = CCCC[C@H](N)C(=O)O; Ac5c = NC1(C(=O)O)CCCC1; Aib = CC(C)(N)C(=O)O

Columns and labels:
[1] = Human plasma half-life assay; type: in vitro ADME; details: 37° C., LC-MS, read-out: Human Plasma T½ (converted)
Method: (§1) B. Human and Rat Plasma Half-Life Assay
(§2) 50 μl was removed at various times, like at 0, 1, 2, 3, 4, 8, 24, 32, 48, 56, 72 hours, mixed with 5 μl formic acid and 150 μL acetonitrile in a microcentrifuge tube, vertexed, and centrifuged for 10 minutes at 10 K rpm. The supernatant was transferred to an injection vial and analyzed by LC-MS. The LC-MS system consisted of an API4000 mass spectrometer with an ESI probe. Positive ion mode and full scan detection were used. HPLC separation was carried out on a Luna 3μ. C8 (2), 2×30 mm column with a gradient from 90% A to 90% B in 10 minutes at a flow rate of 0.3 ml/min. Buffer A was 1% formic acid in water and buffer B was 1% formic acid acetonitrile.

[2] = target: T1, human recombinant GIP receptor (Homo sapiens, UniProt P48546); test: In vitro hGIP receptor binding assay
T1 construct: expressed in transfected cells; host or cells: CHO-K1 clonal cells (membrane preparation)
T1 sequence (P48546 22-466): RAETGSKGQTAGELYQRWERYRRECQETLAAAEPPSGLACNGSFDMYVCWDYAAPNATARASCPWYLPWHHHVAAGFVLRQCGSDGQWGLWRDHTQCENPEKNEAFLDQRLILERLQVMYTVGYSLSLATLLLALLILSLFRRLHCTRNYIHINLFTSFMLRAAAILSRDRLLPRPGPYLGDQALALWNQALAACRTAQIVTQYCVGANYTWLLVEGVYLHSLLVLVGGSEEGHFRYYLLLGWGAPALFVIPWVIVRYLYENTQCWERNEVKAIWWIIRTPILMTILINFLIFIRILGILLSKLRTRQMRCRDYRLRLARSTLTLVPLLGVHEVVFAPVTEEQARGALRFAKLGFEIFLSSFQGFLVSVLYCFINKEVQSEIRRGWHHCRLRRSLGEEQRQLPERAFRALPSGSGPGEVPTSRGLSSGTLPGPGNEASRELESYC
Method: A. In Vitro hGIP Receptor Binding Assay […] The incubations were terminated by rapid filtration through GF/C filters (pre-soaked in 0.5% polyethylenimine) using a Brandel filtration manifold. Each tube and filter were then washed three times with 5-ml aliquots of ice-cold buffer.

[3] = Rat plasma half-life assay; type: in vitro ADME; details: 37° C., LC-MS, read-out: Rat Plasma T½ (converted)
Method: as §1, §2

| Compound | half-life at 0.1 mg/ml [1] [min] | Ki [2] [nM] | half-life at 0.1 mg/ml [3] [min] | half-life [1] [min] | half-life [3] [min] |
| --- | --- | --- | --- | --- | --- |
| CC[C@H](C)[C@H](NC(=O)[C@H](CCCCN)NC(=O)[C@H](CC(=O)O)NC(=O)[C@H](CCSC)NC(=O)[C@H](C)NC(=O)[C@@H](NC(=O)C1(NC(=O)[C@H](Cc2ccc(O)cc2)NC(=O)[C@H](CC(=O)O)NC(=O)[C@H](CO)NC(=O)[C@@H](NC(=O)[C@H](Cc2ccccc2)NC(=O)[C@@H](NC(=O)CNC(=O)[C@H](CCC(=O)O)NC(=O)C(C)(C)NC(=O)[C@@H](N)Cc2ccc(OC)cc2)[C@@H](C)O)[C@@H](C)CC)CCCC1)[C@@H](C)CC)C(=O)N[C@@H](Cc1c[nH]cn1)C(=O)N[C@@H](CCC(N)=O)C(=O)N[C@@H](CCC(N)=O)C(=O)N[C@@H](CC(=O)O)C(=O)N[C@@H](Cc1ccccc1)C(=O)N[C@H](C(=O)N[C@@H](CC(N)=O)C(=O)N[C@@H](Cc1c[nH]c2ccccc12)C(=O)N[C@@H](CC(C)C)C(=O)N[C@@H](CC(C)C)C(=O)N[C@@H](C)C(=O)N[C@@H](CCC(N)=O)C(=O)N[C@@H](CCCCN)C(=O)NCC(=O)N[C@@H](CCCCN)C(=O)N[C@@H](CCCCN)C(=O)N[C@@H](CC(N)=O)C(=O)N[C@@H](CC(=O)O)C(=O)N[C@@H](Cc1c[nH]c2ccccc12)C(=O)N[C@@H](CCCCN)C(=O)N[C@@H](Cc1c[nH]cn1)C(=O)N[C@@H](CC(N)=O)C(=O)N[C@H](C(=O)NC1(C(=O)N[C@@H](CCC(N)=O)C(=O)O)CCCC1)[C@@H](C)CC)C(C)C [Example 31, [Tyr(Me)^1, Aib^2, A5c^11, 41]hGIP(1-42)-OH] | 2090 | 4.5 | 582 | – | – |
| [Tyr(3-OMe)][Aib]EGTFISDY[Ac5c]IA[Ac5c]DKIHQQDFVNWLLAQKGKKNDWKHNI[Ac5c]QH-OH [Example 75, (3MeO-Tyr^1, Aib^2, A5c^11, 14, His^43)hGIP(1-43)-OH] | – | – | – | > 3600 | 1120 |
| CCCC[C@H](NC(=O)[C@H](C)NC(=O)[C@@H](NC(=O)[C@H](CO)NC(=O)[C@H](Cc1ccc(O)cc1)NC(=O)[C@H](CC(=O)O)NC(=O)[C@H](CO)NC(=O)[C@@H](NC(=O)[C@H](Cc1ccccc1)NC(=O)[C@@H](NC(=O)CNC(=O)[C@@H]1CCCN1C(=O)C(C)(C)NC(=O)CCc1ccc(O)cc1)[C@@H](C)O)[C@@H](C)CC)[C@@H](C)CC)C(=O)N[C@@H](CC(=O)O)C(=O)N[C@@H](CCCCN)C(=O)N[C@H](C(=O)N[C@@H](Cc1c[nH]cn1)C(=O)N[C@@H](CCC(N)=O)C(=O)N[C@@H](CCC(N)=O)C(=O)N[C@@H](CC(=O)O)C(=O)N[C@@H](Cc1ccccc1)C(=O)N[C@H](C(=O)N[C@@H](CC(N)=O)C(=O)N[C@@H](Cc1c[nH]c2ccccc12)C(=O)N[C@@H](CC(C)C)C(=O)N[C@@H](CC(C)C)C(=O)N[C@@H](C)C(=O)N[C@@H](CCC(N)=O)C(=O)N[C@@H](CCCCN)C(N)=O)C(C)C)[C@@H](C)CC [Example 9, (4Hppa^1, Aib^2, hPro^3, Nle^14)hGIP(1-30)-NH2] (Desaminotyrosyl-[Aib]PGTFISDYSIA[Nle]DKIHQQDFVNWLLAQK-NH2) | – | – | – | 1590 | 840 |
| CCCC[C@H](NC(=O)[C@H](C)NC(=O)[C@@H](NC(=O)C1(NC(=O)[C@H](Cc2ccc(O)cc2)NC(=O)[C@H](CC(=O)O)NC(=O)[C@H](CO)NC(=O)[C@@H](NC(=O)[C@H](Cc2ccccc2)NC(=O)[C@@H](NC(=O)CNC(=O)[C@H](CCC(=O)O)NC(=O)C(C)(C)NC(=O)[C@@H](N)Cc2ccc(O)c(I)c2)[C@@H](C)O)[C@@H](C)CC)CCCC1)[C@@H](C)CC)C(=O)N[C@@H](CC(=O)O)C(=O)N[C@@H](CCCCN)C(=O)N[C@H](C(=O)N[C@@H](Cc1c[nH]cn1)C(=O)N[C@@H](CCC(N)=O)C(=O)N[C@@H](CCC(N)=O)C(=O)N[C@@H](CC(=O)O)C(=O)N[C@@H](Cc1ccccc1)C(=O)N[C@H](C(=O)N[C@@H](CC(N)=O)C(=O)N[C@@H](Cc1c[nH]c2ccccc12)C(=O)N[C@@H](CC(C)C)C(=O)N[C@@H](CC(C)C)C(=O)N[C@@H](C)C(=O)N[C@@H](CCC(N)=O)C(=O)N[C@@H](CCCCN)C(=O)NCC(=O)N[C@@H](CCCCN)C(=O)N[C@@H](CCCCN)C(=O)N[C@@H](CC(N)=O)C(=O)N[C@@H](CC(=O)O)C(=O)N[C@@H](Cc1c[nH]c2ccccc12)C(=O)N[C@@H](CCCCN)C(=O)N[C@@H](Cc1c[nH]cn1)C(=O)N[C@@H](CC(N)=O)C(=O)N[C@H](C(=O)N[C@H](C(=O)N[C@@H](CCC(N)=O)C(=O)O)[C@@H](C)O)[C@@H](C)CC)C(C)C)[C@@H](C)CC [Example 16, (3I-Tyr^1, Aib^2, A5c^11, Nle^14)hGIP(1-42)-OH] | 3130 | 5.03 | 1110 | – | – |
| CC[C@H](C)[C@H](NC(=O)[C@H](CCCCN)NC(=O)[C@H](CC(=O)O)NC(=O)C1(NC(=O)[C@H](C)NC(=O)[C@@H](NC(=O)C2(NC(=O)[C@H](Cc3ccc(O)cc3)NC(=O)[C@H](CC(=O)O)NC(=O)[C@H](CO)NC(=O)[C@@H](NC(=O)[C@H](Cc3ccccc3)NC(=O)[C@@H](NC(=O)CNC(=O)[C@H](CCC(=O)O)NC(=O)C(C)(C)NC(=O)[C@@H](N)Cc3c(C)cc(O)cc3C)[C@@H](C)O)[C@@H](C)CC)CCCC2)[C@@H](C)CC)CCCC1)C(=O)N[C@@H](Cc1c[nH]cn1)C(=O)N[C@@H](CCC(N)=O)C(=O)N[C@@H](CCC(N)=O)C(=O)N[C@@H](CC(=O)O)C(=O)N[C@@H](Cc1ccccc1)C(=O)N[C@H](C(=O)N[C@@H](CC(N)=O)C(=O)N[C@@H](Cc1c[nH]c2ccccc12)C(=O)N[C@@H](CC(C)C)C(=O)N[C@@H](CC(C)C)C(=O)N[C@@H](C)C(=O)N[C@@H](CCC(N)=O)C(=O)N[C@@H](CCCCN)C(=O)NCC(=O)N[C@@H](CCCCN)C(=O)N[C@@H](CCCCN)C(=O)N[C@@H](CC(N)=O)C(=O)N[C@@H](CC(=O)O)C(=O)N[C@@H](Cc1c[nH]c2ccccc12)C(=O)N[C@@H](CCCCN)C(=O)N[C@@H](Cc1c[nH]cn1)C(=O)N[C@@H](CC(N)=O)C(=O)N[C@H](C(=O)N[C@H](C(=O)N[C@@H](CCC(N)=O)C(=O)N[C@@H](Cc1c[nH]cn1)C(=O)O)[C@@H](C)O)[C@@H](C)CC)C(C)C [Example 54, (2,6Me-Tyr^1, Aib^2, A5c^11, 14, His^43)hGIP(1-43)-OH] | > 3000 | 50.2 | 1290 | – | – |
| [Phe(4-CN)][Aib]EGTFISDY[Ac5c]IAMDKIHQQDFVNWLLAQKGKKNDWKHNITQH-OH [Example 79, (4CN-Phe^1, Aib^2, A5c^11, His^43)hGIP(1-43)-OH] | 1580 | 5.12 | 1300 | – | – |
| CC[C@H](C)[C@H](NC(=O)[C@H](CCCCN)NC(=O)[C@H](CC(=O)O)NC(=O)[C@H](CCSC)NC(=O)[C@H](C)NC(=O)[C@@H](NC(=O)C1(NC(=O)[C@H](Cc2ccc(O)cc2)NC(=O)[C@H](CC(=O)O)NC(=O)[C@H](CO)NC(=O)[C@@H](NC(=O)[C@H](Cc2ccccc2)NC(=O)[C@@H](NC(=O)CNC(=O)[C@H](CCC(=O)O)NC(=O)C(C)(C)NC(=O)[C@@H](N)Cc2ccc(C#N)cc2)[C@@H](C)O)[C@@H](C)CC)CCCC1)[C@@H](C)CC)C(=O)N[C@@H](Cc1c[nH]cn1)C(=O)N[C@@H](CCC(N)=O)C(=O)N[C@@H](CCC(N)=O)C(=O)N[C@@H](CC(=O)O)C(=O)N[C@@H](Cc1ccccc1)C(=O)N[C@H](C(=O)N[C@@H](CC(N)=O)C(=O)N[C@@H](Cc1c[nH]c2ccccc12)C(=O)N[C@@H](CC(C)C)C(=O)N[C@@H](CC(C)C)C(=O)N[C@@H](C)C(=O)N[C@@H](CCC(N)=O)C(=O)N[C@@H](CCCCN)C(=O)NCC(=O)N[C@@H](CCCCN)C(=O)N[C@@H](CCCCN)C(=O)N[C@@H](CC(N)=O)C(=O)N[C@@H](CC(=O)O)C(=O)N[C@@H](Cc1c[nH]c2ccccc12)C(=O)N[C@@H](CCCCN)C(=O)N[C@@H](Cc1c[nH]cn1)C(=O)N[C@@H](CC(N)=O)C(=O)N[C@H](C(=O)NC1(C(=O)N[C@@H](CCC(N)=O)C(=O)O)CCCC1)[C@@H](C)CC)C(C)C [Example 38, (4CN-Phe^1, Aib^2, A5c^11, 41)hGIP(1-42)-OH] | 984 | 14.4 | > 4320 | – | – |
